Columns and labels:
[1] = system: neuronal damage in the hippocampus; experiment: gerbil ischemic model (bilateral carotid occlusion), hippocampal neuronal damage rating; format: in vivo, adult female Mongolian gerbils
Text: (§1) The actions of compounds of formula I as antagonists at the glycine receptor of the NMDA receptor complex can be shown by standard tests such as the [^3 H]-glycine binding assay, by functional assays in vitro such as tests for measuring glutamate evoked contractions of the guinea pig ileum, and by tests in vivo such as ischemia induced by carotid occlusion in the gerbil model.
When testing in vivo using the gerbil ischemic model, adult female Mongolian gerbils (50-70 g) are anesthetized with 2 to 3% halothane. The bilateral common carotid arteries at the neck are exposed and occluded with microaneurysm clips. After 10 min (unless specified), the clips are removed and the blood flow through the carotid arteries is restored and the skin is sutured. Test compounds are administered intraperitoneally both pre- and post-occlusion, for example 45 minutes before and 5 minutes after occlusion of the carotid arteries. Sham-operated animals are treated in the same manner except that the arteries are not clamped. Gross behavioral observations along with motor activity are recorded for 2 hr on the first (24 hr) day following the occlusion. After 4 days, subjects are sacrificed (decapitation), brains are removed, fixed, sectioned and stained with hematoxylin/eosin and cresyl violet.
The brain sections are rated for neuronal damage in the hippocampus using the following rating scale:
1=slight damage (up to 25%)--restricted CA1/subiculum border
2=moderate damage (up to 50%)--obvious damage, restricted to less than half of CA1 field
3=marked damage (up to 75%)--involving greater than half of CA1 field
4=damage extending beyond CA1 field
Results can be reported as the percentage of neuroprotection afforded by a particular dose and dosing regimen.
Sections (7 micron) are evaluated from each brain. Occasionally, asymmetrical damage may be noted and the rating assigned is the average score of the two sides. The average brain damage rating score for each group is recorded, and the damage scores of the drug treated group are compared to the vehicle-treated group using Wilcoxcon-Rank Sum test.
Typical values in this test for compounds according to the invention are illustrated by the following results: for the compound of Example 1, 57% neuroprotection (relative to sham-operated control) when dosed twice with 20 mg/kg body weight intraperitoneally (ip) according to the above regimen; 44% neuroprotection when dosed with 30 mg/kg body weight ip three times at 15, 30, and 45 minutes after induction of ischemia; for the compound of Example 3, 83% neuroprotection when dosed twice with 30 mg/kg body weight ip according to the above regimen; for the compound of Example 1a, 78% neuroprotection when dosed twice with 20 mg/kg body weight ip according to the above regimen.

[2] = system: NMDA receptor channel complex; experiment: inhibition of glutamate evoked contractions of the guinea pig ileum (longitudinal muscle/myenteric plexus); format: cell-based; details: 100 μM glutamate; test compound added 5 minutes before the glutamate
Text: as §1
For glutamate evoked contractions of the guinea pig ileum, the methodology is as described previously (Luzzi et. al., Br. J. Pharmacol., 95, 1271-1277 (1989). The longitudinal muscle and associated myenteric plexus are removed and placed in oxygenated modified Krebs-Henseleit solution (118 mM NaCl, 4.7 mM KCl, 2.5 mM CaCl2, 1.2 mM KH2 PO4, 25 mM NaHCO3, and 11 mM glucose). Tissues are suspended on glass rods in organ baths under a resting tension of 0.5 g. After an initial depolarization with 80 mM potassium to remove possible blockade of the NMDA receptor channel complex with magnesium, twitch responses are evoked with 100 μM glutamate. Isometric mechanical responses are recorded. Tissues are equilibrated for at least 2 hours prior to addition of compounds.
A dose response curve for the effect of the unknown on the magnitude of the glutamate-evoked contractions is generated. Glutamate-evoked contractions are generated at 20 minute intervals, with the test compound added 5 minutes before the glutamate. […]

[3] = biological target: T1, glycine receptor of the NMDA receptor complex (Rattus norvegicus, UniProt P35439); experiment: [3H]-glycine binding assay at the N-methyl-D-aspartate receptor, rat neuronal synaptic membranes (cortices and hippocampi); parameters: species or system male Sprague-Dawley rats; details: 20 nM [3H]-glycine, pH 7.1, 30 minutes at 4° C.
T1 construct: Freshly dissected cortices and hippocampi are homogenized in 0.32 M sucrose; from tissue; host or cells: synaptic membranes of cortices and hippocampi of adult male Sprague-Dawley rats
Description: as §1
In the [^3 H]-glycine binding assay, neuronal synaptic membranes are prepared from adult (about 250 g) male Sprague-Dawley rats. Freshly dissected cortices and hippocampi are homogenized in 0.32 M sucrose (110 mg/mL). Synaptosomes are isolated by centrifuga-tion (1000×g, 10 min), the supernatant is pelleted (20,000×g, 20 min) and resuspended in double-distilled water. The suspension was centrifuged for 20 minutes at 8,000×g. The resulting supernatant and buffy coat are washed twice (48,000×g, 10 mins, resuspension in double-deionized water). The final pellet is quickly frozen (dry iceethanol bath) under double-deionized water and stored at -70° C.
On the day of the experiment, thawed synaptic membranes are homogenized with a Brinkmann Polytron (tm, Brinkmann Instruments, Westbury, N.Y.) tissue homogenizer in 50 mM tris(hydroxymethyl)aminomethane citrate, pH 7.1. The membranes are incubated with 0. 04% Sufact-AMPS X100 (tm, Pierce, Rockford, Ill.) in buffer for 20 minutes at 37° C. and washed six times by centrifugation (48,000×g, 10 min) and resuspended in buffer. The final pellet is homogenized at 200 mg wet weight/mL of the buffer for the binding assay.
For [^3 H]-glycine binding at the N-methyl-D-aspartate receptor, 20 nM [^3 H]-glycine (40-60 Ci/mmol, New England Nuclear, Boston, Mass.) is incubated with the membranes suspended in 50 mM tris (hydroxymethyl)aminomethane citrate, pH 7.1 for 30 minutes at 4° C. Glycine, 1 mM, is used to define the nonspecific binding. […] Radioactivity is estimated by liquid scintillation counting. […]

[4] = dosed twice with 20 mg/kg ip, pre- and post-occlusion (e.g. 45 min before and 5 min after), Example 1: relative to sham-operated control

IC50 [2] [nM]	IC50 [3] [nM]	SMILES	neuroprotection ([1]; 30 mg/kg ip three times at 15, 30, and 45 minutes after induction of ischemia) [%]	neuroprotection [1, 4] [%]	neuroprotection ([1]; dosed twice with 30 mg/kg ip, pre- and post-occlusion (e.g. 45 min before and 5 min after)) [%]
110	30	O=c1[nH]c2cc(Cl)ccc2c(=O)cc1O [Example 1, 8-Chloro-2,5-dihydro-2,5-dioxo-3-hydroxy-1H-benz[b]azepine]	44	57	–
–	1000	COc1cc(=O)c2ccc(Cl)cc2[nH]c1=O [Example 1a, 8-Chloro-2,5-dihydro-2,5-dioxo-3-methoxy-1H-benz[b]azepine]	–	78	–
1000	97	O=c1[nH]c2cc(Br)ccc2c(=O)cc1O [Example 3, 8-bromo-2,5-dihydro-2,5-dioxo-3-hydroxy-1H-benz[b]azepine]	–	–	83
